Test results published in ChEMBL document CHEMBL1909046, “DrugMatrix in vitro pharmacology data”.
pIC50, pKi: −log10 of the molar value.

How the values were obtained:
[1] = DRUGMATRIX: Phorbol Ester radioligand binding (ligand: [3H] PDBu); assay type: cell membranes, Mus musculus, ICR, Brain, Membrane; details: Not Active = under 50% inhibition at 10 µM
[2] = biological target: 5-hydroxytryptamine receptor 4 (Cavia porcellus, UniProt O70528); assay type: cell membranes, Dunkin-Hartley, Striatum, Membrane; note: in other assays of this panel Not Active means under 50% inhibition at 10 µM
5-hydroxytryptamine receptor 4, sequence (O70528 whole entry): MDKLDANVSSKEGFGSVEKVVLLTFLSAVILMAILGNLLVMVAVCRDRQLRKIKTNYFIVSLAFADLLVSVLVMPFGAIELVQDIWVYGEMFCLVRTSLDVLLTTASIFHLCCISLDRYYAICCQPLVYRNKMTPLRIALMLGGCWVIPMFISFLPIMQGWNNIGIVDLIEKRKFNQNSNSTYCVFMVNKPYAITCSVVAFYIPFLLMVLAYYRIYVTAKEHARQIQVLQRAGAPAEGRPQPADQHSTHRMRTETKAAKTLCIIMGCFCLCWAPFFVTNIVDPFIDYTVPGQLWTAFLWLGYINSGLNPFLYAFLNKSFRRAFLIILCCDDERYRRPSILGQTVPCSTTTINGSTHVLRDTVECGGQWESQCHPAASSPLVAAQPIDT

[3] = biological target: Estrogen receptor beta (Homo sapiens, UniProt Q92731); details: sf9; note: in other assays of this panel Not Active means under 50% inhibition at 10 µM
Estrogen receptor beta, sequence (Q92731 whole entry): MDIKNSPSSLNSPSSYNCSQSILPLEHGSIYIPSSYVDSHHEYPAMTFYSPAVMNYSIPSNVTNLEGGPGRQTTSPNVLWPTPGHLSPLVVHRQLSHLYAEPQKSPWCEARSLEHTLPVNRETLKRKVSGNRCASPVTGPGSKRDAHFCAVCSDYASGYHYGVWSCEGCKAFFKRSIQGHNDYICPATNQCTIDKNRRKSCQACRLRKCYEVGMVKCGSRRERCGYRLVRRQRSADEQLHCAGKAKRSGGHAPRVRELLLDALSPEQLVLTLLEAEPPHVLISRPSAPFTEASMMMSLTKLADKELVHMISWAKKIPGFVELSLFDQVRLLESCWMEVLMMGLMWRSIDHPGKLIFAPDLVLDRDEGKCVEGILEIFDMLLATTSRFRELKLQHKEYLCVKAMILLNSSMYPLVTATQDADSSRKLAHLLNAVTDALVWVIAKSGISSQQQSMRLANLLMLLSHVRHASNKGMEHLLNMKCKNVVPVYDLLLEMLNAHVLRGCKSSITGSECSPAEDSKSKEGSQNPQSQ

[4] = DRUGMATRIX: Interleukin IL-1 radioligand binding (ligand: [125I] interleukin 1beta); assay type: cell membranes, Membrane; details: nih3t3; Not Active = under 50% inhibition at 10 µM
[5] = biological target: T1, Adenosine receptor A3 (Homo sapiens, UniProt P0DMS8); assay type: cell membranes, CHO-K1, Membrane;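 note: radioligand binding assay with AB-MECA serving as the labeled ligand; in other assays of this panel Not Active means under 50% inhibition at 10 µM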
T1 sequence (P0DMS8 whole entry): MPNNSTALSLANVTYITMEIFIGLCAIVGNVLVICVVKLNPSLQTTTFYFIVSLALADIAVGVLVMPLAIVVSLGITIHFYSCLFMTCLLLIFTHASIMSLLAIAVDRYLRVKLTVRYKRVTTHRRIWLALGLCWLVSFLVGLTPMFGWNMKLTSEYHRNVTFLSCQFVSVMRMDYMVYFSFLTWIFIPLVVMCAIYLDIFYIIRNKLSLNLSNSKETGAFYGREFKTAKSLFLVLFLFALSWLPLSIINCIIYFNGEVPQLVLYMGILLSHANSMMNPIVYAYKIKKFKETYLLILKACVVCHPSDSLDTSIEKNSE

[6] = biological target: Vascular endothelial growth factor receptor 1 (Homo sapiens, UniProt P17948); assay type: cell-based; details: huvec; note: in other assays of this panel Not Active means under 50% inhibition at 10 µM
Vascular endothelial growth factor receptor 1, sequence (P17948 whole entry): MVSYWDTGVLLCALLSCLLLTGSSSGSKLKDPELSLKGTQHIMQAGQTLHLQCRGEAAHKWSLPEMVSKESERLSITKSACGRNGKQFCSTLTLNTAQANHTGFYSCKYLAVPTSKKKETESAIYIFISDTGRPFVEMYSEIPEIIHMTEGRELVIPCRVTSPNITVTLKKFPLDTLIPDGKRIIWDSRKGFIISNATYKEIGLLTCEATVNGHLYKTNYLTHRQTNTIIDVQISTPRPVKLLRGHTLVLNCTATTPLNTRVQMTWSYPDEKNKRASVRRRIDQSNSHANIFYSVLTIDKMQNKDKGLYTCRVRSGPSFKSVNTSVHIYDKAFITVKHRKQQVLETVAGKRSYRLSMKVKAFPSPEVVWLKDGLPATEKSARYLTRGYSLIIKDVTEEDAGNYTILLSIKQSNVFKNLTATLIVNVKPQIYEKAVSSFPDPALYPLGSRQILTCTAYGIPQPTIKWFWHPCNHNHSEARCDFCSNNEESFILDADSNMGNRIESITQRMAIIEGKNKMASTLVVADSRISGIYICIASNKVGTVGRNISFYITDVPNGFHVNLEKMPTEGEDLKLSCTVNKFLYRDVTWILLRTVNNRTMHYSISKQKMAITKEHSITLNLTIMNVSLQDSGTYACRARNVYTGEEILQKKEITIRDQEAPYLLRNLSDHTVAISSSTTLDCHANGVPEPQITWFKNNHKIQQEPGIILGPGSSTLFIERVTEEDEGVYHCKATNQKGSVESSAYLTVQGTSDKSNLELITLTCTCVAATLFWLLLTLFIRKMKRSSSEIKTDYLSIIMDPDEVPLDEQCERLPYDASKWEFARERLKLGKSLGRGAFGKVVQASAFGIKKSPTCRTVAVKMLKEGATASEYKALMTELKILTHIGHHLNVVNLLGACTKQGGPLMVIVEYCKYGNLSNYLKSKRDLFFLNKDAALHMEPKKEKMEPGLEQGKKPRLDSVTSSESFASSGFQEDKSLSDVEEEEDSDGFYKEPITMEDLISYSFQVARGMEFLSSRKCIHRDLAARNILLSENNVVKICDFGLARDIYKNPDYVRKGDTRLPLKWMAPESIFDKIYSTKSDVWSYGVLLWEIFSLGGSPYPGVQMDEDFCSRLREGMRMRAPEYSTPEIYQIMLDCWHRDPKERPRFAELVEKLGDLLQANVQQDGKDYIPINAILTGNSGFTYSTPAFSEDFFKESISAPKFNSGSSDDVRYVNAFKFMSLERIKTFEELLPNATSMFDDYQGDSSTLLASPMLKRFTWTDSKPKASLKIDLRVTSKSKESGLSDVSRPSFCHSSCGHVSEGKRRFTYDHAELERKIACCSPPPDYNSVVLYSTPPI

[7] = DRUGMATRIX: Nicotinic Acetylcholine radioligand binding (ligand: [125I] Epibatidine); assay type: cell membranes, Membrane; details: imr-32; Not Active = under 50% inhibition at 10 µM
[8] = biological target: T2, Glucocorticoid receptor (Homo sapiens, UniProt P04150); details: hela s3; note: in other assays of this panel Not Active means under 50% inhibition at 10 µM
T2 sequence (P04150 whole entry): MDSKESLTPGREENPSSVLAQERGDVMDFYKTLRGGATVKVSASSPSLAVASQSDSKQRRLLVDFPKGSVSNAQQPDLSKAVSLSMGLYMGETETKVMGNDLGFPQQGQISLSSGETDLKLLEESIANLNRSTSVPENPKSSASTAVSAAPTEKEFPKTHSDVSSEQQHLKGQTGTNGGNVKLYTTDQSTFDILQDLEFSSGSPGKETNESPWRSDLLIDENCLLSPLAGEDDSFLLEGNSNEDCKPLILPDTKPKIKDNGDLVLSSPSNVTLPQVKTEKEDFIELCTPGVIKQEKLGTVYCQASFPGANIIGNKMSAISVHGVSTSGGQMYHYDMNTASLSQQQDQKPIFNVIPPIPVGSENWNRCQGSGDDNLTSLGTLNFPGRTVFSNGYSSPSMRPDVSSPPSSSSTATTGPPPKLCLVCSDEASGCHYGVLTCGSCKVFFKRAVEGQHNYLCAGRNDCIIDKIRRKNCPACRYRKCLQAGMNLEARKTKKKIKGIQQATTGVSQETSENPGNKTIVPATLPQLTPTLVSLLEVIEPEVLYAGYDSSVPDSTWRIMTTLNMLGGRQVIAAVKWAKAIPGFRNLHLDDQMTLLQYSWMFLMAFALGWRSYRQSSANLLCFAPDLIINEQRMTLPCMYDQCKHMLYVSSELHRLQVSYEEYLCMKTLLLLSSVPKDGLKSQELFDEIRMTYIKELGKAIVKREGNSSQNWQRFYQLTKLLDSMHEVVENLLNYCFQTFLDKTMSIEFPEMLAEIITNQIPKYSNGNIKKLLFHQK

Compound	IC50 [1]	Ki [1]	IC50 [2]	IC50 [3]	IC50 [4]	Ki [4]	IC50 ([5]; cho-k1)	IC50 [6]	IC50 [7]	Ki [7]	IC50 [8]	Ki [8]	pIC50 ([5]; read-out: IC50)	pKi ([5]; read-out: Ki)	Ki [2]	Ki [3]	Ki ([5]; cho-k1)	Ki [6]
COc1nc(C)nc(Cl)c1NC1=NCCN1 [MOXONIDINE]	Not Active	Not Active	Not Active	Not Active	Not Active	Not Active	Not Active	Not Active	Not Active	Not Active	Not Active							
Nc1nc2ccc(OC(F)(F)F)cc2s1 [RILUZOLE]	Not Active	Not Active	Not Active	Not Active	Not Active	Not Active	Not Active	Not Active	Not Active	Not Active	Not Active							
C[C@@H]1CN(c2c(F)c(N)c3c(=O)c(C(=O)O)cn(C4CC4)c3c2F)C[C@H](C)N1 [SPARFLOXACIN]	Not Active	Not Active	Not Active	Not Active	Not Active	Not Active	Not Active	Not Active	Not Active	Not Active	Not Active							
N[C@@H](Cc1ccc(O)c(O)c1)C(=O)O [LEVODOPA]	Not Active	Not Active	Not Active	Not Active	Not Active	Not Active	Not Active	Not Active	Not Active	Not Active	Not Active							
CCOC(=O)N1CCC(=C2c3ccc(Cl)cc3CCc3cccnc32)CC1 [LORATADINE]	Not Active	Not Active	Not Active	Not Active	Not Active	Not Active	Not Active	Not Active	Not Active	Not Active	Not Active							
Cc1cccc(N(C)C(=S)Oc2ccc3ccccc3c2)c1 [TOLNAFTATE]	Not Active	Not Active	Not Active	Not Active	Not Active	Not Active	Not Active	Not Active	Not Active	Not Active	Not Active							
CC[C@@H](CO)NC(=O)[C@@H]1C=C2c3cccc4[nH]cc(c34)C[C@H]2N(C)C1 [METHYLERGONOVINE]	Not Active	Not Active	Not Active	Not Active	Not Active	Not Active	Not Active	Not Active	Not Active	Not Active	Not Active							
c1ccc([C@H]2CN3CCSC3=N2)cc1 [LEVAMISOLE]	Not Active	Not Active	Not Active	Not Active	Not Active	Not Active	Not Active	Not Active	Not Active	Not Active		Not Active						
CC(C)(C)NC(=O)[C@@H]1C[C@@H]2CCCC[C@@H]2CN1C[C@@H](O)[C@H](Cc1ccccc1)NC(=O)[C@H](CC(N)=O)NC(=O)c1ccc2ccccc2n1	Not Active	Not Active	Not Active	Not Active	Not Active	Not Active	Not Active	Not Active	Not Active	Not Active	Not Active							
Nc1nc2nc[nH]c2c(=S)[nH]1 [THIOGUANINE]	Not Active	Not Active	Not Active	Not Active	Not Active	Not Active		Not Active	Not Active	Not Active	Not Active		4.66	4.91				
SODIUM NITROPRUSSIDE	Not Active	Not Active	Not Active	Not Active	Not Active	Not Active	Not Active	Not Active	Not Active	Not Active	Not Active	Not Active			Not Active	Not Active	Not Active	Not Active
